Results taken from the supplement of paper PMC10307832.

Columns and labels:
Assay in all cases: relative viability (nuclei count vs DMSO), 5 days (fraction); higher = more cells survive
IU1-47 + Luminespib = compound: CC1=CC(=C(N1C2=CC=C(C=C2)Cl)C)C(=O)CN3CCCCC3 [IU1-47] + CCNC(=O)c1noc(-c2cc(C(C)C)c(O)cc2O)c1-c1ccc(CN2CCOCC2)cc1 [Luminespib] (partner 0.01 µM)
Method in brief: (§1)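 Lung cancer cell lines were pin-tool dosed in 1536-well plates on the day after seeding, with either a lone drug or a fixed anchor-drug dose plus five library-drug doses (not always all listed) in √10 steps. Nuclei were counted on 4× images after 5 days. Relative viability is the ratio of treated-well to vehicle-well nuclei counts, with each value a median of duplicate plates.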

IU1-47 + Phenformin = compound: CC1=CC(=C(N1C2=CC=C(C=C2)Cl)C)C(=O)CN3CCCCC3 [IU1-47] + N=C(N)NC(=N)NCCc1ccccc1 [Phenformin] (partner 250 µM)
Method in brief: as §1

FG-4592 + Luminespib = compound: Cc1nc(C(=O)NCC(=O)O)c(O)c2ccc(Oc3ccccc3)cc12 [FG-4592] + CCNC(=O)c1noc(-c2cc(C(C)C)c(O)cc2O)c1-c1ccc(CN2CCOCC2)cc1 [Luminespib] (partner 0.01 µM)
Method in brief: as §1

FG-4592 + Phenformin = compound: Cc1nc(C(=O)NCC(=O)O)c(O)c2ccc(Oc3ccccc3)cc12 [FG-4592] + N=C(N)NC(=N)NCCc1ccccc1 [Phenformin] (partner 250 µM)
Method in brief: as §1

Question: What does the source list for UMC-11?
Answer: relative viability (IU1-47 + Luminespib; first compound 0.08 µM): 1.08; relative viability (IU1-47 + Luminespib; first compound 0.253 µM): 0.974; relative viability (IU1-47 + Luminespib; first compound 0.8 µM): 1.09; relative viability (IU1-47 + Luminespib; first compound 2.53 µM): 1.06; relative viability (IU1-47 + Luminespib; first compound 8 µM): 0.938; relative viability (IU1-47 + Phenformin; first compound 0.08 µM): 0.315; relative viability (IU1-47 + Phenformin; first compound 0.253 µM): 0.326; relative viability (IU1-47 + Phenformin; first compound 0.8 µM): 0.322; relative viability (IU1-47 + Phenformin; first compound 2.53 µM): 0.349; relative viability (IU1-47 + Phenformin; first compound 8 µM): 0.367; relative viability (FG-4592 + Luminespib; first compound 0.08 µM): 0.957; relative viability (FG-4592 + Luminespib; first compound 0.253 µM): 0.944; relative viability (FG-4592 + Luminespib; first compound 0.8 µM): 1.01; relative viability (FG-4592 + Luminespib; first compound 2.53 µM): 0.995; relative viability (FG-4592 + Luminespib; first compound 8 µM): 0.778; relative viability (FG-4592 + Phenformin; first compound 0.08 µM): 0.323; relative viability (FG-4592 + Phenformin; first compound 0.253 µM): 0.291; relative viability (FG-4592 + Phenformin; first compound 0.8 µM): 0.322; relative viability (FG-4592 + Phenformin; first compound 2.53 µM): 0.314; relative viability (FG-4592 + Phenformin; first compound 8 µM): 0.395
